From patent publication US11925650B2, “Antibacterial chemical compound, its manufacturing method and its use thereof” (National Taiwan University, priority 2022, dated 2024)
Like-named read-outs stand apart in the source and are kept apart here.

Legend:
RAW264.7 = experiment: Cytotoxicity in RAW264.7 cells (HCA, MTT cell viability assay); type: cell-based
S. Typhimurium 14028 = experiment: Anti-intracellular Salmonella activity in infected RAW264.7 cells (HCA); type: cell-based, Salmonella Typhimurium; conditions: for Selectivity ratio (IC50/EC50): IC50 RAW264.7 / EC50 S. Typhimurium 14028
[1] = Mus musculus, RAW264.7, read-out: IC50 (μM) RAW264.7
[2] = Salmonella enterica, TYPHIMURIUM, RAW264.7, read-out: EC50 (μM) S. Typhimurium 14028, intracellular Salmonella in infected RAW264.7 cells
[3] = Mus musculus, cytotoxicity, RAW264.7 cells, read-out: IC50 (μM) RAW264.7
[4] = Salmonella enterica, TYPHIMURIUM, intracellular Salmonella in infected RAW264.7 cells, read-out: EC50 (μM) S. Typhimurium 14028

## 2-chloro-11-(3-(3,4-dichlorophenyl)propyl)dibenzo[b,f][1,4]oxazepine [SW15]
RAW264.7; cytotoxicity, RAW264.7 cells, read-out: IC50 (μM) RAW264.7
  IC50: 82.7 µM
S. Typhimurium 14028; intracellular Salmonella in infected RAW264.7 cells, read-out: EC50 (μM) S. Typhimurium 14028
  EC50: 31.1 µM

## CN(C)CCNC1=Nc2ccccc2Oc2ccc(Cl)cc21 [SW1, N1-(2-chlorodibenzo[b,f][1,4]oxazepin-11-yl)-N2,N2-dimethylethane-1,2-diamine]
RAW264.7; [1]
  IC50: 34.6 µM
S. Typhimurium 14028
  Selectivity ratio (IC50/EC50): 9.5
S. Typhimurium 14028; [2]
  EC50: 3.6 µM

## Clc1ccc2c(c1)C(NCCN1CCCC1)=Nc1ccccc1O2 [SW2, 2-chloro-N-(2-(pyrrolidin-1-yl)ethyl)dibenzo[b,f][1,4]oxazepin-11-amine]
RAW264.7; [1]
  IC50: 26.6 µM
S. Typhimurium 14028
  Selectivity ratio (IC50/EC50): 5.4
S. Typhimurium 14028; [2]
  EC50: 4.9 µM

## Clc1ccc2c(c1)C(NCCN1CCCCC1)=Nc1ccccc1O2 [SW3, 2-chloro-N-(2-(piperidin-1-yl)ethyl)dibenzo[b,f][1,4]oxazepin-11-amine]
RAW264.7; [1]
  IC50: 22.2 µM
S. Typhimurium 14028
  Selectivity ratio (IC50/EC50): 5.1
S. Typhimurium 14028; [2]
  EC50: 4.3 µM

## Clc1ccc2c(c1)C(NCCN1CCOCC1)=Nc1ccccc1O2 [SW4, 2-chloro-N-(2-morpholinoethyl)dibenzo[b,f][1,4]oxazepin-11-amine]
RAW264.7; [1]
  IC50: 84.7 µM
S. Typhimurium 14028
  Selectivity ratio (IC50/EC50): 2.6
S. Typhimurium 14028; [2]
  EC50: 32 µM

## Clc1ccc2c(c1)C(NCCc1cccnc1)=Nc1ccccc1O2 [SW5, 2-chloro-N-(2-(pyridin-3-yl)ethyl)dibenzo[b,f][1,4]oxazepin-11-amine]
RAW264.7; [1]
  IC50: 74 µM
S. Typhimurium 14028
  Selectivity ratio (IC50/EC50): 1.9
S. Typhimurium 14028; [2]
  EC50: 38.2 µM

## CN1CCCC1CCNC1=Nc2ccccc2Oc2ccc(Cl)cc21 (stereo not shown) [SW6, 2-chloro-N-(2-(1-methylpyrrolidin-2-yl)ethyl)dibenzo[b,f][1,4]oxazepin-11-amine]
RAW264.7; [1]
  IC50: 23 µM
S. Typhimurium 14028
  Selectivity ratio (IC50/EC50): 18.9
S. Typhimurium 14028; [2]
  EC50: 1.2 µM

## Clc1ccc2c(c1)C(NCCc1ccccc1)=Nc1ccccc1O2 [SW7, 2-chloro-N-phenethyldibenzo[b,f][1,4]oxazepin-11-amine]
RAW264.7; [1]
  IC50: 56.3 µM
S. Typhimurium 14028
  Selectivity ratio (IC50/EC50): 2.7
S. Typhimurium 14028; [2]
  EC50: 21.2 µM

## CCCCCNC1=Nc2ccccc2Oc2ccc(Cl)cc21 [SW8, 2-chloro-N-pentyldibenzo[b,f][1,4]oxazepin-11-amine]
RAW264.7; [1]
  IC50: 72.7 µM
S. Typhimurium 14028
  Selectivity ratio (IC50/EC50): 1.3
S. Typhimurium 14028; [2]
  EC50: 54.1 µM

## Clc1ccc2c(c1)C(NCc1ccccc1)=Nc1ccccc1O2 [SW9, N-benzyl-2-chlorodibenzo[b,f][1,4]oxazepin-11-amine]
RAW264.7; [1]
  IC50: 60.8 µM
S. Typhimurium 14028
  Selectivity ratio (IC50/EC50): 3.1
S. Typhimurium 14028; [2]
  EC50: 19.7 µM

## Clc1ccc2c(c1)C(NCC1CC1)=Nc1ccccc1O2 [SW11, 2-chloro-N-(cyclopropylmethyl)dibenzo[b,f][1,4]oxazepin-11-amine]
RAW264.7; [1]
  IC50: 74 µM
S. Typhimurium 14028
  Selectivity ratio (IC50/EC50): 1.7
S. Typhimurium 14028; [2]
  EC50: 44 µM

## Oc1ccc(CCNC2=Nc3ccccc3Oc3ccc(Cl)cc32)cc1 [SW12, 4-(2-((2-chlorodibenzo[b,f][1,4]oxazepin-11-yl)amino)ethyl)phenol]
RAW264.7; [1]
  IC50: 52.1 µM
S. Typhimurium 14028
  Selectivity ratio (IC50/EC50): 1.6
S. Typhimurium 14028; [2]
  EC50: 33.5 µM

## CCCNC1=Nc2ccccc2Oc2ccc(Cl)cc21 [SW13, 2-chloro-N-propyldibenzo[b,f][1,4]oxazepin-11-amine]
RAW264.7; [1]
  IC50: 112 µM
S. Typhimurium 14028
  Selectivity ratio (IC50/EC50): 2.0
S. Typhimurium 14028; [2]
  EC50: 56 µM

## Clc1ccc2c(c1)C(NCCc1ccncc1)=Nc1ccccc1O2 [SW16, 2-chloro-N-(2-(pyridin-4-yl)ethyl)dibenzo[b,f][1,4]oxazepin-11-amine]
RAW264.7; [1]
  IC50: 51.1 µM
S. Typhimurium 14028
  Selectivity ratio (IC50/EC50): 2.8
S. Typhimurium 14028; [2]
  EC50: 18.5 µM

## CCC(CC)NC1=Nc2ccccc2Oc2ccc(Cl)cc21 [SW17, 2-chloro-N-(pentan-3-yl)dibenzo[b,f][1,4]oxazepin-11-amine]
RAW264.7; [1]
  IC50: 72.8 µM
S. Typhimurium 14028
  Selectivity ratio (IC50/EC50): 2.6
S. Typhimurium 14028; [2]
  EC50: 28.5 µM

## CC(C)CCNC1=Nc2ccccc2Oc2ccc(Cl)cc21 [SW18, 2-chloro-N-isopentyldibenzo[b,f][1,4]oxazepin-11-amine]
RAW264.7; [1]
  IC50: 70.1 µM
S. Typhimurium 14028
  Selectivity ratio (IC50/EC50): 1.3
S. Typhimurium 14028; [2]
  EC50: 55.1 µM

## Fc1ccc(CCNC2=Nc3ccccc3Oc3ccc(Cl)cc32)cc1 [SW19, 2-chloro-N-(4-fluorophenethyl)dibenzo[b,f][1,4]oxazepin-11-amine]
RAW264.7; [1]
  IC50: 112 µM
S. Typhimurium 14028
  Selectivity ratio (IC50/EC50): 1.8
S. Typhimurium 14028; [2]
  EC50: 61.5 µM

## Clc1ccc(CCNC2=Nc3ccccc3Oc3ccc(Cl)cc32)cc1 [SW20, 2-chloro-N-(4-chlorophenethyl)dibenzo[b,f][1,4]oxazepin-11-amine]
RAW264.7; [1]
  IC50: 91.6 µM
S. Typhimurium 14028
  Selectivity ratio (IC50/EC50): 2.0
S. Typhimurium 14028; [2]
  EC50: 45.1 µM

## Clc1ccc2c(c1)C(NCCN1CCCCC1)=Nc1cccnc1N2 [SW21, 8-chloro-N-(2-(piperidin-1-yl)ethyl)-11H-benzo[e]pyrido[3,2-b][1,4]diazepin-6-amine]
RAW264.7; [3]
  IC50: 63.6 µM
S. Typhimurium 14028
  Selectivity ratio (IC50/EC50): 11.0
S. Typhimurium 14028; [4]
  EC50: 5.8 µM

## Clc1ccc2c(c1)C(NCCCN1CCCC1)=Nc1ccccc1O2 [SW22, 2-chloro-N-(3-(pyrrolidin-1-yl)propyl)dibenzo[b,f][1,4]oxazepin-11-amine]
RAW264.7; [1]
  IC50: 16.3 µM
S. Typhimurium 14028
  Selectivity ratio (IC50/EC50): 14.8
S. Typhimurium 14028; [2]
  EC50: 1.1 µM

## O=C1CCCN1CCCNC1=Nc2ccccc2Oc2ccc(Cl)cc21 [SW23, 1-(3-((2-chlorodibenzo[b,f][1,4]oxazepin-11-yl)amino)propyl)pyrrolidin-2-one]
RAW264.7; [1]
  IC50: > 90 µM
S. Typhimurium 14028
  Selectivity ratio (IC50/EC50): >1.3
S. Typhimurium 14028; [2]
  EC50: > 90 µM

## O=C(CNC1=Nc2ccccc2Oc2ccc(Cl)cc21)N1CCCC1 [SW24, 2-((2-chlorodibenzo[b,f][1,4]oxazepin-11-yl)amino)-1-(pyrrolidin-1-yl)ethan-1-one]
RAW264.7; [1]
  IC50: > 90 µM
S. Typhimurium 14028; [2]
  EC50: > 90 µM

## CN1CCCC1CCNC1=Nc2cccnc2Nc2ccc(Cl)cc21 (stereo not shown) [SW25, 8-chloro-N-(2-(1-methylpyrrolidin-2-yl)ethyl)-11H-benzo[e]pyrido[3,2-b][1,4]diazepin-6-amine]
RAW264.7; [3]
  IC50: 85.5 µM
S. Typhimurium 14028
  Selectivity ratio (IC50/EC50): 26.2
S. Typhimurium 14028; [4]
  EC50: 3.3 µM

## Clc1ccc2c(c1)C(NCCCN1CCCCC1)=Nc1ccccc1O2 [SW26, 2-chloro-N-(3-(piperidin-1-yl)propyl)dibenzo[b,f][1,4]oxazepin-11-amine]
RAW264.7; [1]
  IC50: 16.1 µM
S. Typhimurium 14028
  Selectivity ratio (IC50/EC50): 14.6
S. Typhimurium 14028; [2]
  EC50: 1.1 µM

## CN(C)CCNC1=Nc2cccnc2Nc2ccc(Cl)cc21 [SW27, N1-(8-chloro-11H-benzo[e]pyrido[3,2-b][1,4]diazepin-6-yl)-N2,N2-dimeth ylethane-1,2-diamine]
RAW264.7; [3]
  IC50: > 90 µM
S. Typhimurium 14028
  Selectivity ratio (IC50/EC50): >13.9
S. Typhimurium 14028; [4]
  EC50: 6.5 µM

## Clc1ccc2c(c1)C(NCCN1CCCC1)=Nc1cccnc1N2 [SW28, 8-chloro-N-(2-(pyrrolidin-1-yl)ethyl)-11H-benzo[e]pyrido[3,2-b][1,4]diazepin-6-amine]
RAW264.7; [3]
  IC50: 63.2 µM
S. Typhimurium 14028
  Selectivity ratio (IC50/EC50): 6.8
S. Typhimurium 14028; [4]
  EC50: 9.3 µM

## Clc1ccc2c(c1)C(NCCCN1CCCC1)=Nc1cccnc1N2 [SW29, 8-chloro-N-(3-(pyrrolidin-1-yl)propyl)-11H-benzo[e]pyrido[3,2-b][1,4]diazepin-6-amine]
RAW264.7; [3]
  IC50: 101 µM
S. Typhimurium 14028
  Selectivity ratio (IC50/EC50): 18.8
S. Typhimurium 14028; [4]
  EC50: 5.3 µM

## CN1CCN(CCCNC2=Nc3cccnc3Nc3ccc(Cl)cc32)CC1 [SW31, 8-chloro-N-(3-(4-methylpiperazin-1-yl)propyl)-11H-benzo[e]pyrido[3,2-b][1,4]diazepin-6-amine]
RAW264.7; [3]
  IC50: 129 µM
S. Typhimurium 14028
  Selectivity ratio (IC50/EC50): 18.7
S. Typhimurium 14028; [4]
  EC50: 7 µM

## Clc1ccc2c(c1)C(NCCCN1CCCCC1)=Nc1cccnc1N2 [SW32, 8-chloro-N-(3-(piperidin-1-yl)propyl)-11H-benzo[e]pyrido[3,2-b][1,4]diazepin-6-amine]
RAW264.7; [3]
  IC50: 105 µM
S. Typhimurium 14028
  Selectivity ratio (IC50/EC50): 16.4
S. Typhimurium 14028; [4]
  EC50: 6.4 µM

## c1ccc2c(c1)N=C(NCCCN1CCCC1)c1ccccc1N2 [SW33, N-(3-(pyrrolidin-1-yl)propyl)-5H-dibenzo[b,e][1,4]diazepin-11-amine]
RAW264.7; [1]
  IC50: 143 µM
S. Typhimurium 14028
  Selectivity ratio (IC50/EC50): 213.4
S. Typhimurium 14028; [2]
  EC50: 0.7 µM

## c1ccc2c(c1)N=C(NCCN1CCCCC1)c1ccccc1N2 [SW35, N-(2-(piperidin-1-yl)ethyl)-5H-dibenzo[b,e][1,4]diazepin-11-amine]
RAW264.7; [1]
  IC50: 111 µM
S. Typhimurium 14028
  Selectivity ratio (IC50/EC50): 29.3
S. Typhimurium 14028; [2]
  EC50: 3.8 µM

## Cc1cc2c(s1)Nc1ccccc1N=C2NCCN1CCCCC1 [SW38, 2-methyl-N-(2-(piperidin-1-yl)ethyl)-10H-benzo[b]thieno[2,3-e][1,4]diazepin-4-amine]
RAW264.7; [1]
  IC50: 36.5 µM
S. Typhimurium 14028
  Selectivity ratio (IC50/EC50): 22.4
S. Typhimurium 14028; [2]
  EC50: 1.6 µM

## Cc1cc2c(s1)Nc1ccccc1N=C2NCCN(C)C [SW39, N1,N1-dimethyl-N2-(2-methyl-10H-benzo[b]thieno[2,3-e][1,4]diazepin-4-yl)ethane-1,2-diamine]
RAW264.7; [1]
  IC50: 122 µM
S. Typhimurium 14028
  Selectivity ratio (IC50/EC50): 72.5
S. Typhimurium 14028; [2]
  EC50: 1.7 µM

## Cc1cc2c(s1)Nc1ccccc1N=C2NCCN1CCNCC1 [SW41, 2-methyl-N-(2-(piperazin-1-yl)ethyl)-10H-benzo[b]thieno[2,3-e][1,4]diazepin-4-amine]
RAW264.7; [1]
  IC50: 105 µM
S. Typhimurium 14028
  Selectivity ratio (IC50/EC50): 26.8
S. Typhimurium 14028; [2]
  EC50: 3.9 µM

## Cc1cc2c(s1)Nc1ccccc1N=C2NCCCN1CCCC1 [SW42, 2-methyl-N-(3-(pyrrolidin-1-yl)propyl)-10H-benzo[b]thieno[2,3-e][1,4]diazepin-4-amine]
RAW264.7; [1]
  IC50: 76.4 µM
S. Typhimurium 14028
  Selectivity ratio (IC50/EC50): 82.6
S. Typhimurium 14028; [2]
  EC50: 0.9 µM

## Cc1cc2c(s1)Nc1ccccc1N=C2NCCCN(C)C [SW43, N1,N1-dimethyl-N3-(2-methyl-10H-benzo[b]thieno[2,3-e][1,4]diazepin-4-yl)propane-1,3-diamine]
RAW264.7; [1]
  IC50: 102 µM
S. Typhimurium 14028
  Selectivity ratio (IC50/EC50): 82.1
S. Typhimurium 14028; [2]
  EC50: 1.2 µM
